Measurements reported in US9120771B2, “Azetidine derivative and antidepressant composition including the same” (KOREA INSTITUTE OF SCIENCE AND TECHNOLOGY, priority 2011, dated 2015).
Where a name gives a salt, the structure may show the parent alone. Read-outs that look alike come from different tables or passages of the source.

Experiments:
[1] = biological target: T1, human norepinephrine transporter (Homo sapiens (Human), UniProt P23975); assay: hNET binding assay ([3H]Nisoxetine); settings: for inhibition at 10 µM: read-out: hNET binding assay %-inhibition (10 uM)
T1 sequence (P23975 whole entry): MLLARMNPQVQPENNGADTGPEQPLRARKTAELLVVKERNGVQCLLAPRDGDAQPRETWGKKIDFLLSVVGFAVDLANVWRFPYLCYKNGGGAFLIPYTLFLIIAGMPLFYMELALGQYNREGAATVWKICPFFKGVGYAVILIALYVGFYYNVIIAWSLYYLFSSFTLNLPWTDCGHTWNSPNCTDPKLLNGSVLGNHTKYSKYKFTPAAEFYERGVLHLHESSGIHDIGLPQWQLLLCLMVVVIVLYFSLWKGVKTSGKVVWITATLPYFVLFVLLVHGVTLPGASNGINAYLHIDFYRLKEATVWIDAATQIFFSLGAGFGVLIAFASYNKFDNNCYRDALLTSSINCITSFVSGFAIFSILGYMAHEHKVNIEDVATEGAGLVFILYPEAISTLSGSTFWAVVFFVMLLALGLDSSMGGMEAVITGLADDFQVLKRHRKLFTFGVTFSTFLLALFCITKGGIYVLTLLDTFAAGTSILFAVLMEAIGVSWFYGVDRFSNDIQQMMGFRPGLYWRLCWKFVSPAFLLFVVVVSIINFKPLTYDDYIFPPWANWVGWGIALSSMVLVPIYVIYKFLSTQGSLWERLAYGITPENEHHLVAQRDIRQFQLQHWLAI
Description: NE transporter binding assay for evaluating binding of the compound to the norepinephrine transporter was carried out using human recombinant norepinephrine transporter membrane (PerkinElmer Life and Analytical Sciences, USA) expressed in MDCK cells and radioisotope [^3H]Nisoxetine (PerkinElmer).
That is, the test drug, 6 nM [^3H]Nisoxetine, norepinephrine transporter membrane (11 ug/well), 120 mM NaCl and 50 mM Tris-HCl buffer (pH 7.4) containing 5 mM KCl were added to obtain a reaction mixture with a final volume of 0.25 ml. After incubation for 60 minutes at 4° C., the mixture was quickly passed through a Filtermat A glass fiber filter pre-soaked with 0.5% (w/v) PEI (polyethyleneimine) using Inotech Harvester (Inotech) to terminate the reaction. After washing with cold washing buffer (50 mM Tris-HCl, pH 7.4, 0.9% NaCl) solution, the filter was covered with MeltiLex and sealed in a sample bag. After drying in an oven, radioactivity was counted using MicroBeta Plus (Wallac).
Non-specific binding was measured in the presence of 1 uM desipramine. The IC50 value of the test drug was calculated from non-linear regression analysis (GraphPad Prism Program, San Diego, USA) of each %-inhibition value obtained from the drug with concentrations of 7th and 8th steps.

[2] = biological target: T2, human dopamine transporter (Homo sapiens (Human), UniProt Q01959); assay: hDAT binding assay ([3H]WIN35,428); settings: for inhibition at 10 µM: read-out: hDAT binding assay %-inhibition (10 uM); for IC50: 8 nM [3H]WIN35,428;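 as to all read-outs here: displacement of the radioligand from the transporter membranes, incubated 120 min at 4 °C in Tris-HCl buffer with NaCl, pH 7.4, measured by filter-bound radioactivity counting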
T2 sequence (Q01959 whole entry): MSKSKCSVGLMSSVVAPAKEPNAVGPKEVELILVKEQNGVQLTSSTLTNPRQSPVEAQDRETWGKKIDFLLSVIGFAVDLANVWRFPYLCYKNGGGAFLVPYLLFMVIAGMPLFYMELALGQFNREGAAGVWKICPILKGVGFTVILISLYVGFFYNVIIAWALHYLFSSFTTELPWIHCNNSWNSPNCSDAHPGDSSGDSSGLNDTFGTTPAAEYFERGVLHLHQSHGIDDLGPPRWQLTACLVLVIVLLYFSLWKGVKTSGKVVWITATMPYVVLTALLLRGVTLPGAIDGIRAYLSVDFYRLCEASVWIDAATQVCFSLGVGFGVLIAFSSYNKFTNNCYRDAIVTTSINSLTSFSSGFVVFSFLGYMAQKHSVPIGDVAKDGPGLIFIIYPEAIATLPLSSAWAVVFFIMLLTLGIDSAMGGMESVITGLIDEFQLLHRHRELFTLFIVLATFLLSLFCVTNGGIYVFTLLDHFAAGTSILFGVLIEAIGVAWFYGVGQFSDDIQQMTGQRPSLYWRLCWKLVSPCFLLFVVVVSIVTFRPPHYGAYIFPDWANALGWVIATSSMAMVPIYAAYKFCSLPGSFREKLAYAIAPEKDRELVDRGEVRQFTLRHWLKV

[3] = biological target: T3, human serotonin transporter (Homo sapiens (Human), UniProt P31645); assay: hSERT binding assay ([3H]Imipramine); settings: for inhibition at 10 µM: read-out: hSERT binding assay %-inhibition (10 uM);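 as to all read-outs here: displacement of radiolabeled imipramine from the transporter, incubated 30 min at 27 °C in Tris-HCl pH 7.4 with NaCl and KCl, bound radioactivity counted after filtration, nonspecific binding defined with 200 uM imipramine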
T3 sequence (P31645 whole entry): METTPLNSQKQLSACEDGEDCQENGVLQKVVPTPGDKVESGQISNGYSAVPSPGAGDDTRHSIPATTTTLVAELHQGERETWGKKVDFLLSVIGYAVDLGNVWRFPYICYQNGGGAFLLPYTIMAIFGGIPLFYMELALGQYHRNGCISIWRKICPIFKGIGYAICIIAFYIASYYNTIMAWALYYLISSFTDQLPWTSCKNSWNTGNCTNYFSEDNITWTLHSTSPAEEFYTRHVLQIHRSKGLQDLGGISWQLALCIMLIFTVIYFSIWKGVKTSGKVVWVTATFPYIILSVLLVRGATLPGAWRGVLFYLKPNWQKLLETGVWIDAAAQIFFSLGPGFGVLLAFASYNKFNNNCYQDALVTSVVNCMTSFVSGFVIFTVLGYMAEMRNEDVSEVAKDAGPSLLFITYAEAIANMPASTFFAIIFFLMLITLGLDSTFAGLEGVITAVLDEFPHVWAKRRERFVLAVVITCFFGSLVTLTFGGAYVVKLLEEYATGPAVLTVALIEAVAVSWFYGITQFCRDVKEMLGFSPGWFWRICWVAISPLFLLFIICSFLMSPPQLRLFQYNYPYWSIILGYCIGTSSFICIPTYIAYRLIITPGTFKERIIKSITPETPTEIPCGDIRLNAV

[4] = biological target: T3, human serotonin transporter; assay: hSERT reuptake assay (HEK-hSERT, FDSS6000); assay type: cell-based; settings: HEK-hSERT cells
[5] = biological target: T2, human dopamine transporter; assay: hDAT reuptake assay (HEK-hDAT, FDSS6000); assay type: cell-based; settings: HEK-hDAT cells
[6] = biological target: T1, human norepinephrine transporter; assay: hNET reuptake assay (HEK-hNET, FDSS6000); assay type: cell-based; settings: HEK-hNET cells
[7] = 10 uM, membrane from MDCK cells
[8] = membrane from MDCK cells, 6 nM [3H]Nisoxetine
[9] = 10 uM, membrane from HEK293 cells
[10] = membrane from HEK293 cells, 2 nM [3H]Imipramine
[11] = 10 uM, membrane from CHO-K1 cells

Structure (SMILES)	melting point [°C]	inhibition at 10 µM [2] [%]	IC50 ([4]; Table 3) [nM]	inhibition at 10 µM [1, 7] [%]	IC50 [1, 8] [nM]	IC50 ([5]; Table 3) [nM]	IC50 ([2]; membrane from CHO-K1 cells) [nM]	IC50 ([6]; Table 3) [nM]	inhibition at 10 µM [3, 9] [%]	IC50 [3, 10] [nM]	IC50 ([4]; Table 4) [nM]	IC50 ([5]; Table 4) [nM]	IC50 ([6]; Table 4) [nM]	also measured
CCOC(c1ccc(Cl)c(Cl)c1)C1CNC1.Cl (stereo not shown) [KHG26757, 3-((3,4-dichlorophenyl)(ethoxy)methyl)azetidine hydrochloride]	156	58	–	–	–	–	–	–	–	–	–	–	–	IC50 [1]: 153 nM; inhibition at 10 µM [1]: 86%; IC50 [3]: 97.5 nM; inhibition at 10 µM [3]: 83%
c1ccc(OC(c2ccccc2)C2CNC2)cc1 (stereo not shown) [KHG26765, hydrochloride]	–	87	50	90	1660	380	857	40	98	112	–	–	–	–
Cl.Clc1ccc(C(Oc2ccccc2)C2CNC2)cc1 (stereo not shown) [KHG26766, 3-((4-chlorophenyl)(phenoxy)methyl)azetidine hydrochloride]	191	94	40	90	90.2	150	227	40	–	–	–	–	–	IC50 [3]: 9.2 nM; inhibition at 10 µM [3]: 98%
Clc1ccc(C(Oc2ccccc2)C2CNC2)cc1Cl (stereo not shown) [KHG26767, 3-((3,4-dichlorophenyl)(phenoxy)methyl)azetidine hydrochloride]	–	–	50	100	5.5	60	68.8	30	98	4.3	–	–	–	inhibition at 10 µM [2, 11]: 94%
Cl.c1ccc(COC(c2ccccc2)C2CNC2)cc1 (stereo not shown) [KHG26768, 3-((benzyloxy)(phenyl)methyl)azetidine hydrochloride]	185	90	4600	84	2300	1900	985	800	97	82.9	–	–	–	–
Cl.Clc1ccc(C(OCc2ccccc2)C2CNC2)cc1 (stereo not shown) [KHG26769, 3-((benzyloxy)(4-chlorophenyl)methyl)azetidine hydrochloride]	184	84	1500	94	1340	800	290	500	100	21.6	–	–	–	–
Cl.Clc1ccc(C(OCc2ccccc2)C2CNC2)cc1Cl (stereo not shown) [KHG26770, 3-((benzyloxy)(3,4-dichlorophenyl)methyl)azetidine hydrochloride]	128	96	900	99	93.1	800	23.2	700	98	7.81	–	–	–	–
Cl.O=C(OC(c1ccccc1)C1CNC1)c1ccccc1 (stereo not shown) [KHG26771, azetidine-3-yl(phenyl)methyl benzoate hydrochloride]	215	77	–	54	–	–	1680	–	–	–	–	–	–	IC50 [3]: 402 nM; inhibition at 10 µM [3]: 92%
Cl.O=C(OC(c1ccc(Cl)cc1)C1CNC1)c1ccccc1 (stereo not shown) [KHG26772, azetidine-3-ly(4-chlorophenyl)methyl benzoate hydrochloride]	–	–	2600	–	3480	1300	319	2500	–	357	–	–	–	hNET binding assay %-inhibition (10 uM) [1, 7]: 90%; hDAT binding assay %-inhibition (10 uM) [2, 11]: 66%; hSERT binding assay %-inhibition (10 uM) [3, 9]: 96%
Cl.O=C(OC(c1ccc(Cl)c(Cl)c1)C1CNC1)c1ccccc1 (stereo not shown) [KHG26773, azetidine-3-ly(3,4-dichlorophenyl)methyl benzoate hydrochloride]	–	–	900	–	214	500	241	1100	–	69.9	–	–	–	hNET binding assay %-inhibition (10 uM) [1, 7]: 100%; hDAT binding assay %-inhibition (10 uM) [2, 11]: 97%; hSERT binding assay %-inhibition (10 uM) [3, 9]: 100%
Cc1ccccc1OC(c1ccc(Cl)c(Cl)c1)C1CNC1.Cl (stereo not shown) [KHG26774, 3-((3,4-dichlorophenyl)(ortho-tolyloxy)methyl)azetidine hydrochloride]	194	96	800	100	25.8	300	119	2200	–	–	–	–	–	IC50 [3]: 11.6 nM; inhibition at 10 µM [3]: 100%
Cc1cccc(OC(c2ccc(Cl)c(Cl)c2)C2CNC2)c1.Cl (stereo not shown) [KHG26775, 3-((3,4-dichlorophenyl)(meta-tolyloxy)methyl)azetidine hydrochloride]	200	99	600	100	28.4	400	61.8	600	99	19.8	–	–	–	–
CN1CC(C(Oc2ccccc2)c2ccc3ccccc3c2)C1 (stereo not shown) [KHG26907, 1-methyl-3-(naphthalene-2-yl(phenoxy)methyl)azetidine]	–	–	–	–	–	–	–	–	–	–	202	223	87.9	–
CC(C)(C)OC(c1ccc(Cl)c(Cl)c1)C1CNC1.Cl (stereo not shown) [KHG27252, 3-(tertiarybutoxy(3,4-dichlorophenyl)methyl)azetidine hydrochloride]	159.9	–	–	–	–	–	–	–	–	–	87	100	96	–
Cl.Clc1ccc(C(OC2CCC2)C2CNC2)cc1Cl (stereo not shown) [KHG27253, 3-(cyclobutoxy(3,4-dichlorophenyl)methyl)azetidine hydrochloride]	166.1	–	–	–	–	–	–	–	–	–	25.6	33.4	11	–
Clc1ccc(C(OC2CCCC2)C2CNC2)cc1Cl (stereo not shown) [KHG27254, 3-((cyclopentyloxy)(3,4-dichlorophenyl)methyl)azetidine hydrochloride]	–	–	–	–	–	–	–	–	–	–	25.8	25.8	15.8	–
Cl.Clc1ccc(C(OC2CCCCC2)C2CNC2)cc1Cl (stereo not shown) [KHG27255, 3-((cyclohexyloxy)(3,4-dichlorophenyl)methyl)azetidine hydrochloride]	189.4	–	–	–	–	–	–	–	–	–	58.4	54.8	14.2	–
CCCC(Oc1ccc2ccccc2c1)C1CNC1.Cl (stereo not shown) [KHG27284, 3-(1-(naphthalene-2-yloxy)butyl)azetidine hydrochloride]	77	–	–	–	–	–	–	–	–	–	8.55	710	79.5	–
